Measurements: patent publication US5646316A, “Bile acid inhibitors of metalloproteinase enzymes” (OsteoArthritis Sciences, Inc., priority 1995, dated 1997)
Where two headings read alike, the source gives them in different places.

How the values were obtained:
chondrocytes = assay: Chondrocyte Cell Culture Matrix Breakdown Assay (35S release, rhIL-1α stimulated); assay type: cell-based, calf; conditions: Bos taurus, Chondrocyte, read-out: percent inhibition, Cell Culture
Protocol: A cell culture assay was used to measure the ability of compounds to slow the degradation of the extracellular matrix by a metalloproteinase. This assay measured the amount ^35 S released from chondrocytes grown in a media with ^35 S labeled sodium sulfate. The cell culture assay was carried out as follows:
Two or three 1 to 3 week old calf joints were obtained from an abattoir. The proximal end of the shank was at about 4-5" long to facilitate immobilization in the holder. The joint was kept cool and transported on ice. The exterior of the intact joints was washed well with a suitable anti-microbial soap, rinsed clean with warm water, rinsed in betadine and then finally rinsed with 70% ethanol. Up to this point all steps were done in a manner to ensure that the joint was kept as clean as possible. All subsequent steps were performed in a sterile field (i.e., in a Edgeguard laminar flow tissue culture hood). The joint was immobilized and the synovial fluid was aspirated with a needle and syringe. The joint was then cut open to expose the articular cartilage using a #21 scalpel. Using locking hemostats, forceps and a #15 scalpel, the cartilage was excised in full thickness pieces. Care was taken not to cut too deep because bleeding would have occurred if the subchondral bone, was penetrated. The cartilage pieces were placed into a 50 mL centrifuge tube containing 25 mL of Delbecco's phosphate buffered saline (D-PBS) supplemented with 1% antibiotic solution (penicillin, streptomycin and fungizone; GIBCO/BRL). The slices from each joint were then placed into separate 50 mL centrifuge tubes. The D-PBS was decanted and replaced with 25 mL of fresh D-PBS supplemented with antibiotics and subsequently agitated gently.
The cartilage pieces were transferred to a fresh 50 mL centrifuge tube and rinsed once more with 25 mL of D-PBS minus antibiotics. An enzymatic digestion solution containing 1 mg/mL of hyaluronidase in serum-free 1:1 DMEM/Ham's F-12 (DMEM/F12) was prepared. This solution was filter sterilized with […] Milex--GV filter and kept on ice until ready to use. The cartilage pieces were digested with approximately 5 mL of hyaluronidase solution per joint for 2×15 minutes at 37° C. in the 50 mL centrifuge tube with gentle agitation at the 15 minute mark. This procedure removed residual hyaluronic acid from the surface of the chips. The enzymatic digestion solution was then aspirated and the cartilage pieces were rinsed with 25 mL of D-PBS.
A second enzymatic digestion solution containing 2.5 mg trypsin and 2 mg collagenase P per mL serum-free DMEM/F12 was prepared. This solution was also filter sterilized with a […] Millex--GV filter and kept on ice until ready to use. The cartilage pieces were digested with approximately 5 mL of trypsin: collagenase solution per joint for 2×15 minutes at 37° C. in the 50 mL centrifuge tube with gentle agitation at the 15 minute mark. This procedure removed the synovial fibroblasts and any adherent connective tissue from the surface of the chips. The enzymatic digestion solution was then carefully removed and saved and the cartilage pieces were rinsed with 25 mL of D-PBS.
A third enzymatic solution containing 2 mgs of collagenase P (BMB) per mL serum-free DMEM/F12 was prepared. This solution was filter sterilized with a […] Millex--GV filter and kept on ice until ready to use. The pre-digested cartilage pieces were finally digested with approximately 20 mL of enzymatic digestion solution per joint for 5-6 hours at 37° C. in a Bellco stirring digestion flask, at which point the cartilage was fully digested away.
The enzymes in the synovial fibroblast and chondrocyte digest were neutralized by addition of an equal volume of DMEM/F12 supplemented with 5% fetal bovine serum. Fibroblasts were plated in DMEM at a cellular density of 6.6×10^3 cells per cm^2. […]

stromelysin = stromelysin (Homo sapiens, UniProt P08254); assay: Assay of Stromelysin Inhibition Activity (fluorogenic substrate hydrolysis); assay type: biochemical; conditions: for inhibition at 10 µM: read-out: percent inhibition of stromelysin
Chain of stromelysin (P08254 100-477): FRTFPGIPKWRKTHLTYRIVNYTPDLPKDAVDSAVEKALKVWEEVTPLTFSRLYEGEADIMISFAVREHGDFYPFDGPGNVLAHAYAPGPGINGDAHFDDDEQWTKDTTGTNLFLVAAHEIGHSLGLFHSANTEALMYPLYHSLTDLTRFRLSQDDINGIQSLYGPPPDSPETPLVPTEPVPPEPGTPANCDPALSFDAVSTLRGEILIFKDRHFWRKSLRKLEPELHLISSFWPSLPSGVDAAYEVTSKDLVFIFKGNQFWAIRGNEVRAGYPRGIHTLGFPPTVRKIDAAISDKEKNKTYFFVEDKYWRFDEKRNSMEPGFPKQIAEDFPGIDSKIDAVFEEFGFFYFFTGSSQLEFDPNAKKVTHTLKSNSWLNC
Protocol: (§1) Stromelysin was first activated by trypsin. This was done by preparing a reaction mixture in B-150 (B-150 consists of 150 mM NaCl, 20 mM Tris at pH 7.8 and 0.02% sodium azide) containing a final concentration of 4 μg/mL trypsin, 1.48 μg/mL of stromelysin, and 3.15 mM CaCl2. The reaction was incubated for 30 minutes at 37° C. and then quenched by adding soybean trypsin inhibitor to a final concentration of 43.6 μg/mL. ZnCl2 was added to the reaction mixture for a total concentration of 0.24 μM.
(§2) Following preparation of the solution of activated stromelysin, assay solutions were prepared for each inhibitor being tested. A control was also prepared. First, […] of activated stromelysin (about 45 μL from the solution of activated stromelysin) were aliquotted per assay tube. A 2.5 mM solution in 100% dimethyl sulfoxide (DMSO) was prepared for each inhibitor being tested and 1 μL from each inhibitor solution was added to one of the assay tubes. In addition, 1 μL of 100% DMSO was added to the control assay tube. All assay tubes were then pre-incubated for 5 minutes.
(§3) 5 μL of a previously prepared 50 μM solution of substrate in 15% DMSO were added to each assay tube. The substrate was a methoxycumarin developed by Knight et al. FEBS Lett. 296:263-66 (1992). The tubes were then incubated for 60 minutes, at which time the reaction was stopped with the addition of 750 μL of 0.1M NaAc pH 4.0 buffer.
(§4) Substrate hydrolysis was assessed by fluorescence using a slit width of 10:10, excitation at 328 nm and emission at 393 nm. The results of these assays are listed in Table I as percent inhibition at 10 μM of the bile acid provided compound tested or as the IC50.

collagenase = assay: Assay of Collagenase Inhibition Activity; assay type: biochemical; conditions: at 10 μM of compound; 45 minutes at 37° C.
Protocol: as §1, §2, §3, §4
The assay procedure for collagenase was the same as described in Example 13 for stromelysin except that the trypsin activation was performed for 45 minutes. In addition, the incubation of the assay tubes at 37° C. was only for 45 minutes, and the final enzyme concentration is 6 nm. The results of these assays are provided in Table I as percent inhibition at 10 μM of the compound tested.

[1] = test system: bovine cartilage explants; assay: Bovine Cartilage Explant Assay (35S-GAG release, rhIL-1α stimulated; tissue culture); assay type: cell-based; conditions: Bos taurus; at 50 μM; rhIL-1α 5 ng/mL; 3-4 days; read-out: percent inhibition of extracellular matrix damage, Tissue Culture
From the text: A tissue culture assay was used to measure the ability of the compounds of the present invention to slow the degradation of the extracellular matrix by metalloproteinases. This assay measured the amount of ^35 S-glycosaminoglycan (^35 S-GAG) released from labeled bovine cartilage explants.
Knee joints from a 1 to 3 week old calf were obtained immediately after sacrifice from the Abattoir and then transported on ice. The intact joints were washed well with tap water and soaked in 50% (v/v) Povidine iodine solution, obtained from Burre National, Inc., Baltimore, Md. All subsequent steps were performed in a laminar flow tissue culture hood using standard sterile technique. The joint was immobilized in a shank holder and the joint capsule was cut open to expose the articular cartilage. Cartilage explant plugs, approximately 15 mg wet weight, were removed from the flat articulating surfaces in the lower-most region of the knee joint using a sterile steel cork-borer and collected in a 250 mL roller bottle containing about 100 mL fresh Delbecco's minimum essential medium (DMEM), obtained from Gibco BRC, Life Technologies, Gaithersburg, Md., containing 4.5 g/1 (D)-glucose and (L)-glutamine, without sodium pyruvate. The fresh media also contained enough Hepes buffer and sodium bicarbonate such that the pH was about 7.4. The media was then further supplemented just before use with 100 units Penicillin, 100 μg Streptomycin, and 50 μg (L)-ascorbic acid per mL of medium.
Once collected, the explant plugs were washed four times with 50 mL fresh DMEM. The plugs were then placed in the incubator for a minimum of 1 hour to equilibrate, before proceeding to make disks from the articulating surface of each plug. A 1 mm thick disk was sliced from individual plugs from the end that was the articulating surface of the joint. The plug was held steady in the sterile template (4 mm diameter×1.5 mm deep) using sterile forceps. A scalpel blade was used to carefully slice off the disk. Only the superficial articulating surface responded well in culture.
Individual disks obtained were transferred to a tissue culture flask containing about 100 mL fresh media. The flask containing the disks was placed in an incubator at 37° C. (with 5% CO2, 95% air) and allowed to equilibrate overnight and at least one additional day before labeling. When ready to label, the old media was replaced with 50 mL fresh media containing about 500 μCi ^35 S-Sodium Sulfate. The plugs were labeled in bulk for about 48 hours. The next morning, the "hot" media was removed and replaced with fresh "cold" media. The disks were again allowed to equilibrate overnight before being used for actual experiments.
The media in which the disks were stored was changed immediately prior to performing the assay. The disks were then returned to the incubator until the test media and the two control media had been prepared. The test media consisted of a bile acid or bile acid derivative (50 μM) being tested for its ability to inhibit extracellular matrix degradation and concomitant recombinant human Interleukin rhIL-1α (5 ng/mL) in fresh DMEM solution. The control media were identical to the test media, except that the first control media lacked rhIL-1α and the second control media lacked an inhibitor, i.e. a bile acid or bile acid derivative. 250 μL of each of the test and control media were transferred to separate 96-well TC plates. Flamed forceps were used to transfer a disk from the incubator to each 96-well TC plates that had been filled with either the test media or one of the two control media.
The TC plates were then placed in the incubator and cultured for 3-4 days (initial incubation with rhIL-1α alpha takes at least 3 days to stimulate endogenous metalloproteinases). A 50 μL aliquot of media from each TC plate was saved and counted. The rest of the media was removed with a suction device.
The cartilage disks from each TC plate were also saved for counting. […]

[2] = at 50 μM, rhIL-1α 1 ng/ml, 22-24 hours

Compound	inhibition at 50 µM (chondrocytes; [2]) [%]	inhibition at 10 µM (stromelysin; at 10 μM of compound) [%]	also measured
C[C@H](CCC(=O)N[C@H](Cc1ccccc1)C(=O)NO)[C@H]1CC[C@H]2[C@@H]3CC[C@@H]4C[C@H](O)CC[C@]4(C)[C@H]3CC[C@]12C [Compound 22, Lithocholyl-(D)-Phenylalanine Hydroxamic Acid]	5		IC50 (stromelysin; 60 minutes incubation): 1200 nM
C[C@H](CCC(=O)O)[C@H]1CC[C@H]2[C@@H]3[C@H](O)C[C@@H]4C[C@H](O)CC[C@]4(C)[C@H]3CC[C@]12C [Compound 6, Chenodeoxycholic acid, reference compound]			percent inhibition of collagenase (collagenase): 6%; inhibition at 50 µM [1]: 23%
C[C@H](CCC(=O)N[C@H](CCc1ccccc1)C(=O)NO)[C@H]1CC[C@H]2[C@@H]3CC[C@@H]4C[C@H](O)CC[C@]4(C)[C@H]3CC[C@]12C [Compound 28, Lithocholyl-(D)-homophenylalanine Hydroxamic Acid]		92	
C[C@H](CCC(=O)N[C@@H](CCc1ccccc1)C(=O)NO)[C@H]1CC[C@H]2[C@@H]3CC[C@@H]4C[C@H](O)CC[C@]4(C)[C@H]3CC[C@]12C [Compound 27, Lithocholyl-(L)-homophenylalanine Hydroxamic Acid]		90	
C[C@H](CCC(=O)O)[C@H]1CC[C@H]2[C@@H]3CC[C@@H]4C[C@H](O)CC[C@]4(C)[C@H]3C[C@H](O)[C@]12C [Compound 2, deoxycholic acid, reference compound]	-14		inhibition at 10 µM (stromelysin): 23%
C[C@H](CCC(=O)NO)[C@H]1CC[C@H]2[C@@H]3[C@H](O)C[C@@H]4C[C@H](O)CC[C@]4(C)[C@H]3C[C@H](O)[C@]12C [Compound 23, Cholylhydroxamic Acid]	-20	12	
C[C@H](CCC(=O)NO)[C@H]1CC[C@H]2[C@@H]3[C@H](O)C[C@@H]4C[C@H](O)CC[C@]4(C)[C@H]3CC[C@]12C [Compound 14, Chenodeoxycholyhydroxamic Acid]	77		percent inhibition of collagenase (collagenase): 19%
C[C@H](CCC(=O)NCCC[N+](C)(C)CC(O)CS(=O)(=O)[O-])[C@H]1CC[C@H]2[C@@H]3[C@H](O)C[C@@H]4C[C@H](O)CC[C@]4(C)[C@H]3C[C@H](O)[C@]12C (stereo partly drawn) [Compound 5, 3-[(3-cholamidopropyl)dimethylammonio]-2-hydroxy-1-propanesulfonate, reference compound]			inhibition at 50 µM (chondrocytes): 35%; inhibition at 10 µM (stromelysin): 15%
C[C@H](CCC(=O)O)[C@H]1CC[C@H]2[C@@H]3C[C@H](O)[C@@H]4C[C@H](O)CC[C@]4(C)[C@H]3CC[C@]12C [Compound 4, hyodeoxycholic acid, reference compound]	7	18	
C[C@H](CCC(=O)O)[C@H]1CC[C@H]2[C@@H]3[C@@H](O)C[C@@H]4C[C@H](O)CC[C@]4(C)[C@H]3CC[C@]12C [Compound 3, ursodeoxycholic acid, reference compound]	5	21	
